Measured values: patent publication US5521173A, “Tricyclic benzazepine vasopressin antagonists” (American Home Products Corporation, priority 1995, dated 1996)

Tests used:
[1] = target: T1, Vasopressin V1 receptor subtype in Human Platelet Membranes (Homo sapiens, UniProt P37288); assay: Binding to Vasopressin V1 receptor subtype in Human Platelet Membranes
T1 construct: tissue Hudson Valley Blood Services, Westchester Medical Center, Valhalla, N.Y; host or cells: human platelets (frozen platelet rich plasma)
T1 sequence (P37288 whole entry): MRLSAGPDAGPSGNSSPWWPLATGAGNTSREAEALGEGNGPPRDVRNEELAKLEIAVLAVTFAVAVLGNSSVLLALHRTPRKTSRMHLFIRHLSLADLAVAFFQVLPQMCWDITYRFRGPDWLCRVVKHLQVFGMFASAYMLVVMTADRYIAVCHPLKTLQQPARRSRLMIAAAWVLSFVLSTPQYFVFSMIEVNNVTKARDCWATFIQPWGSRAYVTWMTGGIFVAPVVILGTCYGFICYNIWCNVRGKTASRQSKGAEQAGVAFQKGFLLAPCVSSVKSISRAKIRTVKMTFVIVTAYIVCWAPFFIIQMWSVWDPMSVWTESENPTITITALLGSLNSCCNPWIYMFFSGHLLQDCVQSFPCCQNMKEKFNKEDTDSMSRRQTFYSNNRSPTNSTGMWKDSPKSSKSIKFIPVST
Method: Radioligand Binding Experiments with Human Platelet Membranes
(a) Platelet Membrane Preparation
Frozen platelet rich plasma (PRP), (Platelet Source: Hudson Valley Blood Services, Westchester Medical Center, Valhalla, N.Y.) are thawed to room temperature. The tubes containing the PRP are centrifuged at 16,000×g for 10 min. at 4° C. and the supernatant fluid discarded. The platelets resuspended in an equal volume of 50.0 mM Tris.HCl, pH 7.5 containing 120 mM NaCl and 20.0 mM EDTA. The suspension is recentrifuged at 16,000× g for 10 min. This washing step is repeated one more time. The wash discarded and the lysed pellets homogenized in low ionic strength buffer of Tris.HCl, 5.0 mM, pH 7.5 containing 5.0 mM EDTA. The homogenate is centrifuged at 39,000× g for 10 min. The resulting pellet is resuspended in Tris.HCl buffer, 70.0 mM, pH 7.5 and recentrifuged at 39,000× g for 10 min. The final pellet is resuspended in 50.0 mM Tris.HCl buffer pH 7.4 containing 120 mM NaCl and 5.0 mM KCl to give 1.0-2.0 mg protein per ml of suspension.
(b) Binding to Vasopressin V1 receptor subtype in Human Platelet Membranes
In wells of a 96 well format microtiter plate, add 100 μl of 50.0 mM Tris.HCl buffer containing 0.2% BSA and a mixture of protease inhibitors (aprotinin, leupeptin etc.). Then add 20 μl of [^3 H]Ligand (Manning or Arg^8 Vasopressin), to give final concentrations ranging from 0.01 to 10.0 nM. Initiate the binding by adding 80.0 μl of platelet suspension (approx. 100 μg protein). Mix all reagents by pipetting the mixture up and down a few times. Non specific binding is measured in the presence of 1.0 µM of unlabeled ligand (Manning or Arg^8 Vasopressin). Let the mixture stand undisturbed at room temperature for ninety (90) min. Upon this time, rapidly filter off the incubate under vacuum suction over GF/B filters, using a Brandel Harvester. Determine the radioactivity caught on the filter disks by the addition of liquid scintillant and counting in a liquid scintillator.

[2] = tested on: Vasopressin V2; assay: Vasopressin V2 Antagonist Activity in Conscious Hydrated Rats; assay type: in vivo, rat; details: 10 mg/kg orally, AVP 0.4 μg/kg i.p.; for Osmolality: urine
Method: Two to four rats are used for each compound. One hour later, arginine vasopressin (AVP, antidiuretic hormore, ADH) dissolved in peanut oil is administered at 0.4 μg/kg intraperitoneally. Two rats in each test would not receive arginine vasopressin but only the vehicle (peanut oil) to serve as water-loading control. Twenty minutes later each rat is given 30 mL/kg of deionized water orally by gavage and is placed individually in a metabolic cage equipped with a funnel and a graduated glass cylinder to collect urine for four hours. Urine volume is measured and osmolality analyzed by use of a Fiske One-Ten osmometer (Fiske Assoc., Norwood, Mass., USA). Urinary sodium, potassium, and chloride are analyzed by use of ion-specific electrodes in a Beckman E3 (Electrolyte 3) Analyzer. In the following results, […] and decreased osmolality relative to AVP-control indicates activity.

[3] = target: T2, oxytocin receptors (Rattus norvegicus, UniProt P70536); assay: Oxytocin Receptor Binding; design: species or system rat (female Sprague-Dawley); details: for IC50: 1.0 nM [3H]OT
T2 construct: The uteri are dissected out, cleaned of fat and connective tissues; from tissue; host or cells: uteri of DES-treated female Sprague-Dawley rats
T2 sequence (P70536 1-388): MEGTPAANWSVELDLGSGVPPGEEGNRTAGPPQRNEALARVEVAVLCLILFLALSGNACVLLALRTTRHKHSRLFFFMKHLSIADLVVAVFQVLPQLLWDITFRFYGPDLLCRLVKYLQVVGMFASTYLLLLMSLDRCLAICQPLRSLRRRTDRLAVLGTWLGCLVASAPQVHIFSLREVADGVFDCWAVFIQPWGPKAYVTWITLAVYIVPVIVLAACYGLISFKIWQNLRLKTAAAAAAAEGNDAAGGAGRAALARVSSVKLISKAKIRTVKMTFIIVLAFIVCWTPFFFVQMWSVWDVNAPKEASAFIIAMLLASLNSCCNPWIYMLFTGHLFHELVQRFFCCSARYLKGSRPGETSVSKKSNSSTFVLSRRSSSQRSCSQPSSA
Method: Oxytocin Receptor Binding
Female Sprague-Dawley rats weighing approximately 200-250 g are injected intramuscularly (i.m.) with 0.3 mg/kg of body weight of diethylstilbestrol (DES). The rats are sacrificed 18 hours later under pentobarbital anesthesia. The uteri are dissected out, cleaned of fat and connective tissues and rinsed in 50 ml of normal saline. The tissue pooled from six rats is homogenized in 50 ml of […] Tris.HCl, containing 0.5 mM dithiothreitol and 1.0 mM EDTA, adjusted to pH 7.4, using a polytron at setting 6 with three passes of 10 sec each. The homogenate is passed through two (2) layers of cheesecloth and the filtrate centrifuged at 1000× g for 10 min. The clear supernatant is removed and recentrifuged at 165,000× g for 30 min. The resulting pellet containing the oxytocin receptors is resuspended in 50.0 mM Tris.HCl containing 5.0 mM MgCl2 at pH 7.4, to give a protein concentration of 2.5 mg/ml of tissue suspension. This preparation is used in subsequent binding assays with [^3 H]Oxytocin.
Binding of 3,5-[^3 H]Oxytocin ([^3 H]OT) to its receptors is done in microtiter plates using [^3 H]OT, at various concentrations, in an assay buffer of 50.0 mM Tris.HCl, pH 7.4 and containing 5.0 mM MgCl2, and a mixture of protease inhibitors: BSA, 0.1 mg; aprotinin, 1.0 mg; 1,10-phenanthroline, 2.0 mg; […], 10.0 mg; and PMSF, 0.3 mg per 100 ml of buffer solution. Non-specific binding is determined in the presence of 1.0 uM unlabeled OT. The binding reaction is terminated after 60 min., at 22° C., by rapid filtration through glass fiber filters using a Brandel, cell harvester (Biomedical Research and Development Laboratories,Inc., Gaithersburg, Md.). Competition experiments are conducted at equilibrium using 1.0 nM [^3 H]OT and varying the concentration of the displacing agents. The concentrations of agent displacing 50% of [^3 H]OT at its sites (IC50) are calculated by a computer assisted LUNDON-2 program (LUNDON SOFTWARE INC., Ohio, USA).

[4] = tested on: Vasopressin V1; assay: Vasopressin V1 Antagonist Activity in Conscious Rats (vasopressin vasopressor response); assay type: in vivo, rat; details: for Max % Inhibition: vasopressin vasopressor response
Method: Vasopressin V1 Antagonist Activity in Conscious Rats Conscious rats are restrained in a supine position with elastic tape. The area at the base of the tail is locally anesthetized by subcutaneous in filtration with 2% procaine (0.2 ml). Using aseptic technique the ventral caudal tail artery is isolated and a cannula made of PE 10 and 20 (heat-fused) tubing is passed into the lower abdominal aorta. The cannula is secured, heparinized (1000 i.u./cc), sealed and the wound closed with one or two stitches of Dexon 4-0. The caudal vein is also cannulated in the same manner for intravenous drug administration. The duration of the surgery is approximately 5 minutes. Additional local anesthesia (2% procaine or lidocaine) is provided as needed. The animals are placed in plastic restraining cages in an upright position. The cannula is attached to a Statham P23Db pressure transducer and pulsatile blood pressure is recorded. […] Percentage of antagonism by the compound is calculated using the pre-drug vasopressin vasopressor response as 100%. The results of this test on representative compounds of this invention in which the dose, the maximum % inhibition and the time in minutes, are shown in Table III.

IC50 [1] [nM]	inhibition at 10 µM [3] [%]	IC50 [3] [nM]	SMILES	Urine Volume [2] [ml/4 hrs]	Osmolality [2] [mOsm/kg]	Time (of maximum % inhibition) ([4]; 10 mg/kg iv) [min]	Max % Inhibition ([4]; 10 mg/kg iv) [%]	Time (of maximum % inhibition) ([4]; 30 mg/kg iv) [min]	Max % Inhibition ([4]; 30 mg/kg iv) [%]	Time (of maximum % inhibition) ([4]; 30 mg/kg po) [min]	Max % Inhibition ([4]; 30 mg/kg po) [%]
13	100	110	CN(C)Cc1ccc2n1Cc1ccccc1N(C(=O)c1ccc(-c3ccccc3)cc1)C2 [Example 20, 10-([1,1'-Biphenyl]-4-ylcarbonyl)-10,11-dihydro-N,N-dimethyl-5H-pyrrolo[2,1-c][1,4]benzodiazepine-3-methanamine]	3.5	1650	240	61	–	–	–	–
–	92	1090	O=C(c1ccc(-c2ccccc2)cc1)N1Cc2cccn2-c2ccccc21 [Example 17, 5-([1,1'-Biphenyl]-4-ylcarbonyl)-4,5-dihydropyrrolo[1,2-a]quinoxaline]	10.3	929	–	–	60	63	–	–
–	100	110	O=C(c1ccccc1)c1ccc(C(=O)N2Cc3cccn3Cc3ccccc32)cc1 [Example 16, 10-(4-Benzoylbenzoyl)-10,11-dihydro-5H-pyrrolo[2,1-c][1,4]benzodiazepine]	6	1022	240	67	–	–	–	–
–	98	2100	O=C(c1ccc(Sc2ccccc2)cc1)N1Cc2cccn2Cc2ccccc21 [Example 15, 10,11-Dihydro-10-[4-(phenylthio)benzoyl]-5H-pyrrolo[2,1-c][1,4] benzodiazepine]	4	1278	–	–	–	–	–	–

Continued, molecule first:

SMILES	IC50 [1] [nM]	inhibition at 10 µM [3] [%]	IC50 [3] [nM]	Urine Volume [2] [ml/4 hrs]	Osmolality [2] [mOsm/kg]	Time (of maximum % inhibition) ([4]; 10 mg/kg iv) [min]	Max % Inhibition ([4]; 10 mg/kg iv) [%]	Time (of maximum % inhibition) ([4]; 30 mg/kg iv) [min]	Max % Inhibition ([4]; 30 mg/kg iv) [%]	Time (of maximum % inhibition) ([4]; 30 mg/kg po) [min]	Max % Inhibition ([4]; 30 mg/kg po) [%]
O=C(c1ccc(C#Cc2ccccc2)cc1)N1Cc2cccn2Cc2ccccc21 [Example 4, 10,11-Dihydro-10-[4-(phenylethynyl)-5H-pyrrolo[2,1-c]1,4]benzodiazepine]	–	62	–	6.3	1033	–	–	90	30	–	–
Cc1ccc(Oc2ccc(C(=O)N3Cc4cccn4Cc4ccccc43)cc2)cc1 [Example 18, 10,11-Dihydro-10-[4-(4-methylphenoxy)benzoyl]-5H-pyrrolo[2,1-c][1,4]benzodiazepine]	280	99	120	5.3	919	–	–	300	36	–	–
O=C(c1ccc(-c2nccs2)cc1)N1Cc2cccn2Cc2ccccc21 [Example 10, 10,11-Dihydro-10-[4-(2-thiazolyl)benzoyl]-5H-pyrrolo[2,1-c][1,4]benzodiazepine]	–	77	2500	–	–	–	–	–	–	–	–
O=C(c1ccc(-c2cccs2)cc1)N1Cc2cccn2Cc2ccccc21 [Example 1, 10,11-Dihydro-10-[4-(2-thienyl)benzoyl]-5H-pyrrolo[2,1-c][1,4]benzodiazepine]	–	–	–	5	1148	–	–	–	–	120	53
Cc1ccc(S(=O)(=O)c2ccc(C(=O)N3Cc4cccn4Cc4ccccc43)cc2)cc1 [Example 13, 10,11-Dihydro-10-[4-[(4-methylphenyl)sulfonyl]benzoyl]-5H-pyrrolo[2,1-c][1,4]benzodiazepine]	21	67	–	5.5	1380	–	–	–	–	–	–
C=CCOc1ccc(-c2ccc(C(=O)N3Cc4cccn4Cc4ccccc43)cc2)cc1 [Example 14, 10,11-Dihydro-10-[[4'-(2-propenyloxy)[1,1'-biphenyl]-4-yl]carbonyl]-5H-pyrrolo[2,1-c][1,4]benzodiazepine]	–	67	–	4	1247	–	–	90	50	–	–
O=C(c1ccc(S(=O)(=O)c2ccccc2)cc1)N1Cc2cccn2Cc2ccccc21 [Example 12]	–	69	–	5.8	1254	–	–	–	–	–	–
Cc1ccc(Sc2ccc(C(=O)N3Cc4cccn4Cc4ccccc43)cc2)cc1 [Example 11]	–	86	1800	11	825	–	–	300	54	–	–
